Data taken from PubChem BioAssay AID256 (DTP/NCI, 2004).
Values joined by “and” are separate entries in the source; they are usually repeats but may differ in a detail not shown here. Identical values can stand only once. Inconclusive results and toxic doses are left out. Rule for the calls: active = survival T/C of 150% or more; inactive = T/C below 125% in these data.

Test system: CD2F1 mice, L1210 leukemia ip, survival T/C
Assay: NCI In Vivo Anticancer Drug Screen. Data for tumor model L1210 Leukemia (intraperitoneal) in CD2F1 (CDF1) mice
Conditions: higher = longer survival
In short: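 Antitumor effect is scored in animals hosting a serially transplanted tumor. Values compare compound-dosed animals against vehicle-only controls as a simple quotient.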

[1] = endpoint: mean survival time, dose: 50.0 mg/kg/injection, schedule: Q01DX009 (ip), vehicle: saline with Tween-80
[2] = endpoint: mean survival time, dose: 100.0 mg/kg/injection, schedule: Q01DX009 (ip), vehicle: saline with Tween-80
[3] = endpoint: mean survival time, dose: 100.0 mg/kg/injection, schedule: Q04DX003 (ip), vehicle: saline with Tween-80
[4] = endpoint: mean survival time, dose: 200.0 mg/kg/injection, schedule: Q04DX003 (ip), vehicle: saline with Tween-80
[5] = endpoint: mean survival time, dose: 400.0 mg/kg/injection, schedule: Q04DX003 (ip), vehicle: saline with Tween-80

Measured: T/C

CCN(CCN(C)C(C)(C)C(C)(C)C)C(=O)C(O)(c1ccccc1)c1ccccc1
inactive: [1] 103 % of control | [2] 110 % of control

N#Cc1cn(C2OC(CO)C(O)C2O)c2ncnc(N)c12 (stereo not given)
inactive: endpoint: mean survival time, dose: 0.06 mg/kg/injection, schedule: Q01DX009 (ip), vehicle: saline 106 % of control | endpoint: mean survival time, dose: 0.13 mg/kg/injection, schedule: Q01DX009 (ip), vehicle: saline 110 % of control | endpoint: mean survival time, dose: 0.5 mg/kg/injection, schedule: Q01DX009 (ip), vehicle: saline 111 % of control | endpoint: mean survival time, dose: 1.0 mg/kg/injection, schedule: Q01DX009 (ip), vehicle: saline 95 % of control | endpoint: median survival time, dose: 0.1 mg/kg/injection, schedule: Q06HX024 (ip), vehicle: saline 100 % of control | endpoint: median survival time, dose: 0.2 mg/kg/injection, schedule: Q06HX024 (ip), vehicle: saline 102 % of control | endpoint: median survival time, dose: 0.4 mg/kg/injection, schedule: Q06HX024 (ip), vehicle: saline 109 % of control

O=C1C(=O)c2ccccc2C(O)=C1C(C1=C(O)c2ccccc2C(=O)C1=O)c1ccccc1Br
inactive: endpoint: mean survival time, dose: 100.0 mg/kg/injection, schedule: Q01DX001 (ip), vehicle: saline sonified 98 % of control | [2] 86 % of control | endpoint: mean survival time, dose: 200.0 mg/kg/injection, schedule: Q01DX001 (ip), vehicle: saline sonified 102 % of control | endpoint: mean survival time, dose: 400.0 mg/kg/injection, schedule: Q01DX001 (ip), vehicle: saline sonified 91 % of control

CCNc1nc(NCC)nc(SC)n1
inactive: [1] 100 % of control | [2] 89 % of control | [3] 100 % of control | [4] 97 % of control

Nc1ccc(S(=O)(=O)N(CCO)CCO)cc1[N+](=O)[O-]
inactive: [3] 96 % of control | [4] 98 % of control | [5] 95 % of control

Cc1ccc(S(=O)(=O)N(CCCc2c(C)nc(N)nc2Cl)c2ccccc2)cc1
inactive: endpoint: mean survival time, dose: 50.0 mg/kg/injection, schedule: Q01DX001 (ip), vehicle: Klucel (hydroxypropylcellulose) (HPC) 100 % of control | endpoint: mean survival time, dose: 100.0 mg/kg/injection, schedule: Q01DX001 (ip), vehicle: Klucel (hydroxypropylcellulose) (HPC) 104 % of control | endpoint: mean survival time, dose: 200.0 mg/kg/injection, schedule: Q01DX001 (ip), vehicle: Klucel (hydroxypropylcellulose) (HPC) 96 % of control

C1=CC2CCC[N-]C2N1.C1=CC2CCC[N-]C2N1.[I][Pt+2][I] (stereo not given)
inactive: endpoint: mean survival time, dose: 25.0 mg/kg/injection, schedule: Q04DX003 (ip), vehicle: saline 98 % of control | endpoint: mean survival time, dose: 50.0 mg/kg/injection, schedule: Q04DX003 (ip), vehicle: saline 101 % of control | endpoint: mean survival time, dose: 100.0 mg/kg/injection, schedule: Q04DX003 (ip), vehicle: saline 102 % of control | endpoint: mean survival time, dose: 200.0 mg/kg/injection, schedule: Q04DX003 (ip), vehicle: saline 107 % of control

Cc1ccc(NC(=O)Nc2ccc(Nc3ccccc3)cc2)c([N+](=O)[O-])c1
inactive: endpoint: mean survival time, dose: 100.0 mg/kg/injection, schedule: Q01DX009 (ip), vehicle: Klucel (hydroxypropylcellulose) (HPC) 89 % of control | endpoint: mean survival time, dose: 200.0 mg/kg/injection, schedule: Q01DX009 (ip), vehicle: Klucel (hydroxypropylcellulose) (HPC) 92 % of control | endpoint: mean survival time, dose: 400.0 mg/kg/injection, schedule: Q01DX009 (ip), vehicle: Klucel (hydroxypropylcellulose) (HPC) 89 % of control

CCOC(=O)C12CCCCC1C/C(=N/NC(N)=O)CC2 (stereo not given)
inactive: endpoint: mean survival time, dose: 50.0 mg/kg/injection, schedule: Q04DX003 (ip), vehicle: saline with Tween-80 96 % of control | endpoint: mean survival time, dose: 100.0 mg/kg/injection, schedule: Q01DX001 (ip), vehicle: acetone 92 % of control | endpoint: mean survival time, dose: 100.0 mg/kg/injection, schedule: Q04DX003 (ip), vehicle: acetone 96 % of control | [3] 96 % of control | endpoint: mean survival time, dose: 200.0 mg/kg/injection, schedule: Q01DX001 (ip), vehicle: acetone 94 % of control | endpoint: mean survival time, dose: 200.0 mg/kg/injection, schedule: Q01DX001 (ip), vehicle: saline with Tween-80 88 % of control | endpoint: mean survival time, dose: 200.0 mg/kg/injection, schedule: Q04DX003 (ip), vehicle: acetone 90 % of control | endpoint: mean survival time, dose: 400.0 mg/kg/injection, schedule: Q01DX001 (ip), vehicle: acetone 97 % of control | endpoint: mean survival time, dose: 400.0 mg/kg/injection, schedule: Q04DX003 (ip), vehicle: acetone 90 % of control

O=[As](O)(CC(O)COc1ccccc1)c1cccc(Cl)c1 (stereo not given)
inactive: endpoint: mean survival time, dose: 6.25 mg/kg/injection, schedule: Q04DX003 (ip), vehicle: saline with Tween-80 103 % of control | endpoint: mean survival time, dose: 12.5 mg/kg/injection, schedule: Q04DX003 (ip), vehicle: saline with Tween-80 107 % of control | endpoint: mean survival time, dose: 25.0 mg/kg/injection, schedule: Q04DX003 (ip), vehicle: saline with Tween-80 100 % of control

Cn1c(=O)c2c(nc(Br)n2CC(=O)CF)n(C)c1=O
inactive: endpoint: mean survival time, dose: 12.5 mg/kg/injection, schedule: Q01DX005 (ip), vehicle: distilled water + Tween-80 97 % of control and 100 % of control and 104 % of control | endpoint: mean survival time, dose: 25.0 mg/kg/injection, schedule: Q01DX005 (ip), vehicle: distilled water + Tween-80 97 % of control (2×) and 105 % of control | endpoint: mean survival time, dose: 50.0 mg/kg/injection, schedule: Q01DX005 (ip), vehicle: distilled water + Tween-80 94 % of control and 95 % of control | endpoint: mean survival time, dose: 100.0 mg/kg/injection, schedule: Q01DX005 (ip), vehicle: distilled water + Tween-80 97 % of control (2×) and 112 % of control | endpoint: mean survival time, dose: 200.0 mg/kg/injection, schedule: Q01DX005 (ip), vehicle: distilled water + Tween-80 93 % of control and 95 % of control

CCOC(=O)C1CC2(CC(C)C1=O)OCCO2 (stereo not given)
inactive: endpoint: mean survival time, dose: 100.0 mg/kg/injection, schedule: Q04DX003 (ip), vehicle: alcohol 97 % of control | endpoint: mean survival time, dose: 200.0 mg/kg/injection, schedule: Q04DX003 (ip), vehicle: alcohol 97 % of control | endpoint: mean survival time, dose: 400.0 mg/kg/injection, schedule: Q04DX003 (ip), vehicle: alcohol 92 % of control

O=c1[nH]cnc2c1ncn2C1OCC(O)C(O)C1O (stereo not given)
inactive: endpoint: mean survival time, dose: 100.0 mg/kg/injection, schedule: Q01DX001 (ip), vehicle: saline 102 % of control | endpoint: mean survival time, dose: 200.0 mg/kg/injection, schedule: Q01DX001 (ip), vehicle: saline 97 % of control | endpoint: mean survival time, dose: 400.0 mg/kg/injection, schedule: Q01DX001 (ip), vehicle: saline 103 % of control

Cc1ccc(NC(=O)N(C)N=O)cc1
inactive: endpoint: mean survival time, dose: 89.0 mg/kg/injection, schedule: Q01DX001 (ip), vehicle: other 89 % of control | endpoint: mean survival time, dose: 133.0 mg/kg/injection, schedule: Q01DX001 (ip), vehicle: other 87 % of control | endpoint: mean survival time, dose: 200.0 mg/kg/injection, schedule: Q01DX001 (ip), vehicle: other 89 % of control | endpoint: mean survival time, dose: 300.0 mg/kg/injection, schedule: Q01DX001 (ip), vehicle: other 93 % of control

C=C1C(=O)OC2CC(C)C3CC(O)OC(O)C3(C)CC12 (stereo not given)
inactive: endpoint: mean survival time, dose: 3.13 mg/kg/injection, schedule: Q01DX005 (ip), vehicle: water 88 % of control | endpoint: mean survival time, dose: 6.25 mg/kg/injection, schedule: Q01DX005 (ip), vehicle: water 94 % of control | endpoint: mean survival time, dose: 12.5 mg/kg/injection, schedule: Q01DX005 (ip), vehicle: water 102 % of control

COC1OC(CO)C(OC(=O)Nc2ccccc2)C(OC(=O)Nc2ccccc2)C1O (stereo not given)
inactive: endpoint: mean survival time, dose: 100.0 mg/kg/injection, schedule: Q01DX001 (ip), vehicle: saline with Tween-80 87 % of control | endpoint: mean survival time, dose: 400.0 mg/kg/injection, schedule: Q01DX001 (ip), vehicle: saline with Tween-80 95 % of control

O=C1NC(=O)c2ccc3c4c(ccc1c24)C(=O)NC3=O
inactive: endpoint: mean survival time, dose: 15.5 mg/kg/injection, schedule: Q01DX009 (ip), vehicle: saline with Tween-80 100 % of control | endpoint: mean survival time, dose: 31.0 mg/kg/injection, schedule: Q01DX009 (ip), vehicle: saline with Tween-80 94 % of control | endpoint: mean survival time, dose: 62.0 mg/kg/injection, schedule: Q01DX009 (ip), vehicle: saline with Tween-80 100 % of control | endpoint: mean survival time, dose: 62.5 mg/kg/injection, schedule: Q01DX009 (ip), vehicle: saline with Tween-80 98 % of control

C=CCCCCCCCCC(=O)NCC(C)C
inactive: [2] 104 % of control | [3] 91 % of control | endpoint: mean survival time, dose: 200.0 mg/kg/injection, schedule: Q01DX009 (ip), vehicle: saline with Tween-80 104 % of control | [4] 102 % of control | endpoint: mean survival time, dose: 400.0 mg/kg/injection, schedule: Q01DX009 (ip), vehicle: saline with Tween-80 98 % of control | [5] 100 % of control

Cc1nc(SCc2ccccc2)[nH]c(=O)c1CCO
inactive: [3] 96 % of control | [4] 96 % of control

O=S(=O)(O)O.[NH2-].[NH2-].[Pt+2]
inactive: endpoint: mean survival time, dose: 0.63 mg/kg/injection, schedule: Q04DX003 (ip), vehicle: dextrose 98 % of control | endpoint: mean survival time, dose: 1.25 mg/kg/injection, schedule: Q04DX003 (ip), vehicle: dextrose 108 % of control | endpoint: mean survival time, dose: 5.0 mg/kg/injection, schedule: Q04DX003 (ip), vehicle: dextrose 95 % of control

CC(C/C=N/N1CCCCC1)Nc1ccnc2cc(Cl)ccc12 (stereo not given)
inactive: endpoint: mean survival time, dose: 0.78 mg/kg/injection, schedule: Q01DX009 (ip), vehicle: saline with Tween-80 95 % of control | endpoint: mean survival time, dose: 1.56 mg/kg/injection, schedule: Q01DX009 (ip), vehicle: saline with Tween-80 101 % of control | endpoint: mean survival time, dose: 3.13 mg/kg/injection, schedule: Q01DX009 (ip), vehicle: saline with Tween-80 102 % of control
